Data from patent US12466856B2, “Echinocandin analogues and preparation method therefor” (SHANGHAI SENHUI MEDICINE CO., LTD., priority 2019, dated 2025).
Converted amounts (≈) assume the structure as drawn. Read-outs that look alike come from different tables or passages of the source. Starred links: 1 amine or outer side, 2 acyl side, 3 side chain; linkers in the order of their positions; H or OH if unused. Positions of bridges follow the written chain, without caps; N, C: chain ends. Non-standard residues stand in square brackets, D forms with d. Residues, ends and D or L forms follow the SMILES beside them. *: point of attachment. pTerphenylCO(4''-OnC5H11) = CCCCCOc1ccc(-c2ccc(-c3ccc(C(=O)*)cc3)cc2)cc1; Orn(4R-OH,5R-OH) = O=C([C@H](C[C@@H](O)[C@@H](O)N[*:3])N[*:1])[*:2]; hTyr(3S-OH,4S-OH) = N[C@H](C(=O)O)[C@H](O)[C@@H](O)c1ccc(O)cc1; Pro(3S-OH,4S-Me) = C[C@H]1CN[C@H](C(=O)O)[C@H]1O; Hyp = O=C(O)[C@@H]1C[C@@H](O)CN1

How the values were obtained:
Assay type in all cases: cell-based
[1] = system: Candida albicans ATCC 90029; assay: MIC assay (CLSI M27-A3), Candida albicans ATCC 90029; conditions: Candida albicans, read-out: MIC, Candida albicans ATCC 90029
Experimental: (§1) After a test compound was serially diluted, an MIC (minimum inhibitory concentration) assay was performed on the standard Candida strain and an MEC (minimum effective concentration) assay on the standard Aspergillus strain. The MIC assay was performed according to the guidelines of the Clinical and Laboratory Standards Institute (CLSI M27-A3) and the MEC assay according to the guidelines of the Clinical and Laboratory Standards Institute (CLSI M38-A2).
(§2) The frozen strain was passaged at least twice, and a single colony was picked and resuspended in normal saline or sterile water in a tube. The suspension was vortexed and adjusted to 0.5 McF (1×10^6 to 5×10^6 CFU/mL) using a spectrophotometer at wavelength 530 nm. The suspension was 50-fold diluted with normal saline and then 20-fold diluted with 1×RPMI 1640 broth (1×10^3 to 5×10^3 CFU/mL). 10 μL of the suspension was applied to an SDA plate for colony counting, with a range from about 10 to 50 single colonies.
(§3) At this time, the bacterium concentration in each well should be 0.5×10^3 to 2.5×10^3 CFU/mL.
(§4) For echinocandin drugs, Aspergillus was incubated at 28° C. for 21-26 h, and then the MEC results were read.
(§5) Yeast-type fungi: A disposable sealing film was applied to the 96-well plate, and the mixture was well mixed by shaking. Observation was performed through a plate reader with the naked eye. Comparisons were made to the growth control, and the minimum compound concentration corresponding to ≥50% growth inhibition was defined as MIC. Pictures were taken and saved using an automatic plate reader.

[2] = system: Candida glabrata ATCC 15126; assay: MIC assay (CLSI M27-A3), Candida glabrata ATCC 15126; conditions: Nakaseomyces glabratus, read-out: MIC, Candida glabrata ATCC 15126
Experimental: as §1, §2, §3, §4, §5

[3] = system: Candida parapsilosis ATCC 22019; assay: MIC assay (CLSI M27-A3), Candida parapsilosis ATCC 22019; conditions: Lodderomyces parapsilosis, ATCC22019, 24 h, read-out: MIC, Candida parapsilosis ATCC 22019
Experimental: as §1, §2, §3, §4, §5

Candida krusei ATCC 6258 = assay: MIC assay (CLSI M27-A3), Candida krusei ATCC 6258; conditions: Pichia kudriavzevii, ATCC6258, 24 h, read-out: MIC, Candida krusei ATCC 6258
Experimental: as §1, §2, §3, §4, §5

[4] = system: Meyerozyma guilliermondii ATCC 6260; assay: MIC assay (CLSI M27-A3), Meyerozyma guilliermondii ATCC 6260; conditions: Meyerozyma guilliermondii, read-out: MIC, Meyerozyma guilliermondii ATCC 6260
Experimental: as §1, §2, §3, §4, §5

[5] = system: Candida tropicalis ATCC 750; assay: MIC assay (CLSI M27-A3), Candida tropicalis ATCC 750; conditions: Candida tropicalis, read-out: MIC, Candida tropicalis ATCC 750
Experimental: as §1, §2, §3, §4, §5

[6] = system: Aspergillus flavus ATCC 28539; assay: MEC assay (CLSI M38-A2), Aspergillus flavus ATCC 28539; conditions: first batch; 28° C., 21-26 h
Experimental: The MIC assay was performed according to the guidelines of the Clinical and Laboratory Standards Institute (CLSI M27-A3) and the MEC assay according to the guidelines of the Clinical and Laboratory Standards Institute (CLSI M38-A2).
Colonies on the plate were covered with about 1 mL of 0.85% normal saline or sterile water (polysorbate 20 was added at a final concentration of 0.1%-0.01%). […] The homogeneous upper layer of the suspension was transferred to a new sterile tube, which was then sealed and vortexed for 15 s (be careful as the suspension may produce an aerosol when the cover is removed). The concentration of the suspension was adjusted until an OD value of 0.09-0.13 was achieved using a spectrophotometer at 530 nm. […] 100 μL of sample was added to each well of the 96-well plate within 2 h after dilution (the final spore concentration in the susceptibility testing plate was at 0.4×10^4 to 5×10^4 CFU/mL).
Aspergillus: For echinocandin drugs, comparisons were made to the growth control under a plate reader, and the minimum drug concentration that could cause the hyphae to form small, round, compact hyphal particles was defined as MEC. For accurate determination of MEC values, the plate must not be vortexed before reading.

[7] = ATCC90029, first batch, 24 h, 35° C., ≥50% growth inhibition
[8] = ATCC15126, first batch, 24 h, 35° C., ≥50% growth inhibition
[9] = ATCC6260, first batch, 24 h, 35° C.
[10] = ATCC750, first batch, 24 h, 35° C.

Row | Compound | MIC ([1]; ATCC90029, 24 h) [µg/mL] | MIC ([2]; ATCC15126, 24 h) [µg/mL] | MIC [3] [µg/mL] | MIC (Candida krusei ATCC 6258) [µg/mL] | MIC ([4]; ATCC6260, 24 h) [µg/mL] | MIC ([5]; ATCC750, 24 h) [µg/mL] | MEC, Aspergillus flavus ATCC 28539 [6] [µg/mL] | MIC [1, 7] [µg/mL] | MIC [2, 8] [µg/mL] | MIC [4, 9] [µg/mL] | MIC [5, 10] [µg/mL]
1 | CCCCCOc1ccc(-c2ccc(-c3ccc(C(=O)N[C@H]4C[C@@H](O)[C@@H](O)NC(=O)[C@@H]5[C@@H](O)[C@@H](C)CN5C(=O)[C@H]([C@@H](C)O)NC(=O)[C@H]([C@H](O)[C@@H](O)c5ccc(O)cc5)NC(=O)[C@@H]5C[C@@H](O)CN5C(=O)[C@H]([C@@H](C)O)NC4=O)cc3)cc2)cc1 [Anidulafungin, reference compound] ({pTerphenylCO(4''-OnC5H11)}-[Orn(4R-OH,5R-OH)]T[Hyp][hTyr(3S-OH,4S-OH)]T[Pro(3S-OH,4S-Me)]; lactam 1-C) | 0.016 (≈ 0.014 µM) | 0.125 (≈ 0.11 µM) | 0.5 (≈ 0.438 µM) | 0.063 (≈ 0.0553 µM) | 1 (≈ 0.877 µM) | 0.016 (≈ 0.014 µM) | 0.031 | – | – | – | –
2 | CCCCCOc1ccc(-c2ccc(-c3ccc(C(=O)N[C@H]4C[C@@H](O)[C@@H](OCC5CCCC[N+]5(C)C)NC(=O)[C@@H]5[C@@H](O)[C@@H](C)CN5C(=O)[C@H]([C@@H](C)O)NC(=O)[C@H]([C@H](O)[C@@H](O)c5ccc(O)cc5)NC(=O)[C@@H]5C[C@@H](O)CN5C(=O)[C@H]([C@@H](C)O)NC4=O)cc3)cc2)cc1 (stereo partly drawn) [Example 2] | – | – | 1 | 0.125 | – | – | 0.031 | 0.125 | 0.125 | 2 | 0.016
3 | CCCCCOc1ccc(-c2ccc(-c3ccc(C(=O)N[C@H]4C[C@@H](O)[C@@H](OCC[N+]5(C)CCCC5)NC(=O)[C@@H]5[C@@H](O)[C@@H](C)CN5C(=O)[C@H]([C@@H](C)O)NC(=O)[C@H]([C@H](O)[C@@H](O)c5ccc(O)cc5)NC(=O)[C@@H]5C[C@@H](O)CN5C(=O)[C@H]([C@@H](C)O)NC4=O)cc3)cc2)cc1 [Example 5] | – | – | 2 | 0.125 | – | – | 0.031 | 0.125 | 0.125 | 4 | 0.016
